Assay results taken from article PMC7949135, “Structural analysis of carbohydrate binding by the macrophage mannose receptor CD206” (The Journal of Biological Chemistry, 2021).
Like-named read-outs stand apart in the source and are kept apart here.

Target: T1, biotin-tagged CRD4 (carbohydrate-recognition domain 4 of the mannose receptor, CD206) (Homo sapiens, UniProt P22897)
T1 construct: gene MRC1; borders from residues reported in crystals
T1 sequence (P22897 646-779): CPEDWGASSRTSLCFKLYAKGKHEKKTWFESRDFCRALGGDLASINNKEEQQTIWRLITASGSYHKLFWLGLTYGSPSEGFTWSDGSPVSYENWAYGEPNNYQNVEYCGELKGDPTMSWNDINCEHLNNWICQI
Assay: solid-phase competition with horseradish peroxidase, CRD4 immobilised on streptavidin plates
Format: binding
Text: solid-phase competition with horseradish peroxidase, CRD4 immobilised on streptavidin plates on biotin-tagged CRD4 (carbohydrate-recognition domain 4 of the mannose receptor, CD206)

[1] = competitive, 2.5 mM CaCl2, 150 mM NaCl, 25 mM Tris-Cl pH 7.8, 4 °C

SMILES	Ki [1]	Ki
CC(=O)N[C@H]1[C@H](O[C@H]2[C@H](O)[C@@H](NC(C)=O)C(O)O[C@@H]2CO)O[C@H](CO)[C@@H](O[C@@H]2O[C@H](CO[C@H]3O[C@H](CO[C@H]4O[C@H](CO)[C@@H](O)[C@H](O)[C@@H]4O[C@H]4O[C@H](CO)[C@@H](O)[C@H](O)[C@@H]4O)[C@@H](O)[C@H](O[C@H]4O[C@H](CO)[C@@H](O)[C@H](O)[C@@H]4O[C@H]4O[C@H](CO)[C@@H](O)[C@H](O)[C@@H]4O)[C@@H]3O)[C@@H](O)[C@H](O[C@H]3O[C@H](CO)[C@@H](O)[C@H](O)[C@@H]3O[C@H]3O[C@H](CO)[C@@H](O)[C@H](O)[C@@H]3O[C@H]3O[C@H](CO)[C@@H](O)[C@H](O)[C@@H]3O)[C@@H]2O)[C@@H]1O (some centres unmarked) [Man9]	23 ± 0.4 µM	–
OC[C@H]1O[C@H](O[C@@H]2C(O)O[C@H](CO)[C@@H](O)[C@@H]2O)[C@@H](O)[C@@H](O)[C@@H]1O (some centres unmarked) [Manα1-2Man]	480 ± 40 µM	–
OC[C@H]1O[C@H](O[C@H]2[C@H](O)[C@@H](CO)OC(O)[C@H]2O)[C@@H](O)[C@@H](O)[C@@H]1O (some centres unmarked) [Manα1-3Man]	860 ± 50 µM	–
OC[C@H]1O[C@H](O[C@H]2[C@H](O)[C@H](O)C(O)O[C@@H]2CO)[C@@H](O)[C@@H](O)[C@@H]1O (some centres unmarked) [Manα1-4Man]	730 ± 70 µM	–
OC[C@H]1O[C@H](OC[C@H]2OC(O)[C@@H](O)[C@@H](O[C@H]3O[C@H](CO)[C@@H](O)[C@H](O)[C@@H]3O)[C@@H]2O)[C@@H](O)[C@@H](O)[C@@H]1O (some centres unmarked) [Manα1-6(Manα1-3)Man]	300 ± 80 µM	–
OC[C@H]1O[C@H](OC[C@H]2OC(O)[C@@H](O)[C@@H](O)[C@@H]2O)[C@@H](O)[C@@H](O)[C@@H]1O (some centres unmarked) [Manα1-6Man]	380 ± 30 µM	–
CO[C@H]1O[C@H](CO)[C@@H](O)[C@H](O)[C@@H]1O [α-Methyl mannose]	–	900 ± 100 µM
CO[C@@H]1O[C@@H](C)[C@@H](O)[C@@H](O)[C@@H]1O [αMeFuc]	–	110 ± 20 µM
